From patent US9289517B2 (COMMISSARIAT A L'ENERGIE ATOMIQUE ET AUX ENERGIES …, priority 2008, dated 2016)

How the values were obtained:
[1] = Fluorescence quantum yield F; format: physicochemical; conditions: directly, 10 and 40 days after dialysis
[2] = Behaviour in isotonic medium (154 mM sodium chloride); format: physicochemical
[3] = prior-art statement; tissue autofluorescence typically 0.3-0.4 ns; cited from earlier work
[4] = Fluorescence level measured under optical device (capillaries); conditions: approximately 25 minutes after first measurement; 2.5 nmoles ICG in water, 0.5 nmoles as nanoemulsions

## indocyanine green [ICG]
[1]
  stability of quantum yield over time: the quantum yield remains stable over time, unlike that of free ICG in water
[2]
  behaviour in isotonic medium: flocculates
[3]
  fluorescence lifetime of ICG: 0.5 ns
[4]
  fluorescence level over time: reduction over time of the fluorescence level
